Like-named read-outs stand apart in the source and are kept apart here.
Assays:
patients with HE = settings: cited from earlier work; for HE severity after treatment / HECSI score after treatment: after 16 weeks; for HE severity after treatment: 'severe' at start
HE = assay: clinical studies of baricitinib for treating HE (Example 2, with Davos Biosciences GmbH); format: in vivo, human; settings: daily dosage of 4 mg

## CCS(=O)(=O)N1CC(CC#N)(n2cc(-c3ncnc4[nH]ccc34)cn2)C1 [baricitinib, {1-(ethylsulfonyl)-3-[4-(7H-pyrrolo[2,3-d]pyrimidin-4-yl)-1H-pyrazol-1-yl]azetidin-3-yl}acetonitrile]
Patients with HE; 4 mg tablet once per day
  treatment outcome of two patients with HE: successfully treated
Patients with HE; case 1: severe hyperkeratotic HE, 4 mg once per day
  HE severity after treatment: almost clear
Patients with HE; case 1, 4 mg once per day, HECSI 55 (severe) at start
  HECSI score after treatment: 4
Patients with HE; case 1, 4 mg once per day
  tolerability / side effects: no side effects occurred
Patients with HE; case 1, improved from "strongly impaired"
  quality of life (QOLHEQ) after treatment: not at all impaired
Patients with HE; case 2: severe AD with severe atopic HE, 4 mg per day tapered to 2 mg per day at 12 weeks
  HE severity after treatment: almost clear
Patients with HE; case 2, 4 mg per day tapered to 2 mg at 12 weeks, HECSI 47 (severe) at start
  HECSI score after treatment: 8
Patients with HE; case 2, at 16 weeks
  adverse event leading to discontinuation: bacterial corneal ulcer
Patients with HE; case 2, improved from "moderately impaired"
  quality of life (QOLHEQ) after treatment: not at all impaired
HE
  efficacy in HE (photographic images and additional clinical data): effective

Reference: patent publication US20250041304A1 (Eli Lilly and Company, priority 2021, published 2025)
